The values below come from US20230103791A1 (GLAXOSMITHKLINE INTELLECTUAL PROPERTY DEVELOPMENT LIMITED, priority 2019, published 2023).

The target in the experiment is T1, human Nav1.8 (Homo sapiens, UniProt Q9Y5Y9).
T1 construct: expressed in transfected cells; host or cells: HEK293 (HEK293-Nav1.8)
T1 sequence (Q9Y5Y9 whole entry): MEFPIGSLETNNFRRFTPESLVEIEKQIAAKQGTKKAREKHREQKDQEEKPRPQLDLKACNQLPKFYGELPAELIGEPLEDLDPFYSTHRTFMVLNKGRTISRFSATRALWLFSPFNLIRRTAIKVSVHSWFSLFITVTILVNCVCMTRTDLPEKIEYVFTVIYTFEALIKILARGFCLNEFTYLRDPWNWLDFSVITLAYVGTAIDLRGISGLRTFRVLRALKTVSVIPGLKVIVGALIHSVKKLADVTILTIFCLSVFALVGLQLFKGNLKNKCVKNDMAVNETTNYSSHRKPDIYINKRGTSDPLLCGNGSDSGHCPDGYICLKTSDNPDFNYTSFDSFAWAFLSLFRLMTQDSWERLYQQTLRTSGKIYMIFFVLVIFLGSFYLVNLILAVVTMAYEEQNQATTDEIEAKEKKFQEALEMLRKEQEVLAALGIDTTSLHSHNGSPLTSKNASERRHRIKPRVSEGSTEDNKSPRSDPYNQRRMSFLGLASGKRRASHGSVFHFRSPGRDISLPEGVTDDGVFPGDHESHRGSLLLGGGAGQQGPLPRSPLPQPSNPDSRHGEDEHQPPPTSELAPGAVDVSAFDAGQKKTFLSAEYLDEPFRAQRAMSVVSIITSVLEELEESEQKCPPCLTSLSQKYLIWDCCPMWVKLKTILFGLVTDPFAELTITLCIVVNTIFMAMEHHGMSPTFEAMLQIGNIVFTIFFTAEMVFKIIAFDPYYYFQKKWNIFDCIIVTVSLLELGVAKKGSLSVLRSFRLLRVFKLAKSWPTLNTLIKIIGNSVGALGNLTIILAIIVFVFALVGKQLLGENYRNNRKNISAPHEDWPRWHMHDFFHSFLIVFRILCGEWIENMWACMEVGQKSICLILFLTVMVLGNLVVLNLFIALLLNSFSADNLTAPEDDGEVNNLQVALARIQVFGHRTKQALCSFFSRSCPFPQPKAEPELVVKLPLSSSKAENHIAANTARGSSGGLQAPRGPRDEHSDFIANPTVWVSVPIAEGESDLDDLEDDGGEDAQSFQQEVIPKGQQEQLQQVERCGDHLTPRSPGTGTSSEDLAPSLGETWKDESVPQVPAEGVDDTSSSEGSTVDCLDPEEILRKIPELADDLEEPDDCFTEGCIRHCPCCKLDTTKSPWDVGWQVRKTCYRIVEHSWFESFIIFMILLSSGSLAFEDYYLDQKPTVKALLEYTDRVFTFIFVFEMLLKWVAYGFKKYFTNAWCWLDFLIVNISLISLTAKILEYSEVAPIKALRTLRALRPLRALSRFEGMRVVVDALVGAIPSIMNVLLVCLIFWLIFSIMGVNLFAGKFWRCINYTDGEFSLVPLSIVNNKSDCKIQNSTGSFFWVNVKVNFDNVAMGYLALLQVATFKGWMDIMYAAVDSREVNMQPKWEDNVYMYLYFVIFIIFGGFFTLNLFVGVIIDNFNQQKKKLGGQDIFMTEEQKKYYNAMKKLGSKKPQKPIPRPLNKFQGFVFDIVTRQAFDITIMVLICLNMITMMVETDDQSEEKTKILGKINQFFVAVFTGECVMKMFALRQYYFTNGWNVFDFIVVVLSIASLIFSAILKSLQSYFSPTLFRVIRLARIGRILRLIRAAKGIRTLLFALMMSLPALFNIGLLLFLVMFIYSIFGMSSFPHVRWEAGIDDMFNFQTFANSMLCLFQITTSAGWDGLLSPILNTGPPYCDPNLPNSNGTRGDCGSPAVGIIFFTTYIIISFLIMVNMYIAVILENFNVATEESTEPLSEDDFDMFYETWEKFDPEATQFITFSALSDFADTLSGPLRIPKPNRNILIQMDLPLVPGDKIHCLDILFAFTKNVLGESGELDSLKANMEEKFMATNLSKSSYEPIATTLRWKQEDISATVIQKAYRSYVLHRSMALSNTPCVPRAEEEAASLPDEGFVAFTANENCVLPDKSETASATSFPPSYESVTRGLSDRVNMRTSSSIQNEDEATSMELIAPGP
T1 sequence (Q07699 19-218 partner): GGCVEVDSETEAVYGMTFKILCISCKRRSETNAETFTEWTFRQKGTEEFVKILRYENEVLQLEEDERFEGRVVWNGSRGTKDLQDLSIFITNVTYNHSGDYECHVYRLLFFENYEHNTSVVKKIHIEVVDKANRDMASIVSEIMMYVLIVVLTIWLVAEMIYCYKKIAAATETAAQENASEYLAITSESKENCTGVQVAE
Put plainly: Nav1.8 sodium channels assay, QPatch 48 HTX electrophysiology in HEK293-Nav1.8 cells. It counts as cell-based. To be noted: at least one set of experimental runs; read-out: average pIC50 value against Nav1.8 (converted). A digest of the protocol: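 IC50 came from 6-8 point curves of P2 current amplitude, normalized to baseline and a positive reference, and corrected for run-down using vehicle-only wells. Automated patch clamp used HEK293-Nav1.8 (with Navβ1 and TREK1) at pH 7.4 outside and CsF-based solution inside. An 8 s inactivating step at −46 mV preceded the 0 mV test pulse, repeated at 0.07 Hz.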
(In general: Patch clamp records ionic current or voltage across a cell membrane.)
As for `Cc1[nH]c(=O)ccc1N1CN(c2cccc(C#N)c2C)c2ccc(Cl)cc2C1=O` [Example 128, 3-(6-chloro-3-(2-methyl-6-oxo-1,6-dihydropyridin-3-yl)-4-oxo-3,4-dihydroquinazolin-1(2H)-yl)-2-methylbenzonitrile], the IC50 is 126 to 631 nM.
The same measure for `Cc1cc(F)ccc1N1CN(c2ccc(=O)[nH]c2C)C(=O)c2cc(F)c(OC(F)(F)F)cc21` [Example 129, 6-fluoro-1-(4-fluoro-2-methylphenyl)-3-(2-methyl-6-oxo-1,6-dihydropyridin-3-yl)-7-(trifluoromethoxy)-2,3-dihydroquinazolin-4(1H)-one]: at most 100 nM.
The same measure for `Cc1cc(F)ccc1N1CN(c2ccc(=O)[nH]c2C)C(=O)c2c(C(F)F)cccc21` [Example 130, 5-(difluoromethyl)-1-(4-fluoro-2-methylphenyl)-3-(2-methyl-6-oxo-1,6-dihydropyridin-3-yl)-2,3-dihydroquinazolin-4(1H)-one]: 126 to 631 nM; for `Cc1cc(F)ccc1N1CN(c2cc(F)c(=O)[nH]c2C)C(=O)c2cc(C(F)(F)F)ccc21` [Example 131, 3-(5-fluoro-2-methyl-6-oxo-1,6-dihydropyridin-3-yl)-1-(4-fluoro-2-methylphenyl)-6-(trifluoromethyl)-2,3-dihydroquinazolin-4(1H)-one]: at most 100 nM.
The same measure for `COc1cc(F)ccc1N1CN(c2ccc(=O)[nH]c2C)C(=O)c2cc(F)c(F)cc21` [Example 132, 6,7-difluoro-1-(4-fluoro-2-methoxyphenyl)-3-(2-methyl-6-oxo-1,6-dihydropyridin-3-yl)-2,3-dihydroquinazolin-4(1H)-one]: 126 to 631 nM.
Consider `Cc1ccc(N2CN(c3ccc(=O)[nH]c3C)C(=O)c3cc(Cl)ccc32)c(O)c1` [Example 133, 6-chloro-1-(2-hydroxy-4-methylphenyl)-3-(2-methyl-6-oxo-1,6-dihydropyridin-3-yl)-2,3-dihydroquinazolin-4(1H)-one], for which the IC50 was 794 to 7940 nM.
The same measure for `COc1cc(C)ccc1N1CN(c2ccc(=O)[nH]c2C)C(=O)c2cc(Cl)ccc21` [Example 134, 6-chloro-1-(2-methoxy-4-methylphenyl)-3-(2-methyl-6-oxo-1,6-dihydropyridin-3-yl)-2,3-dihydroquinazolin-4(1H)-one]: 126 to 631 nM; for `Cc1cccc(F)c1N1CN(c2ccc(=O)[nH]c2C)C(=O)c2cc(C(F)(F)F)ccc21` [Example 135, 1-(2-fluoro-6-methylphenyl)-3-(2-methyl-6-oxo-1,6-dihydropyridin-3-yl)-6-(trifluoromethyl)-2,3-dihydroquinazolin-4(1H)-one]: 794 to 7940 nM; for `Cc1cc(F)ccc1N1CN(c2cc[nH]c(=O)c2)C(=O)c2c1ccc(Cl)c2F` [Example 136, 6-chloro-5-fluoro-1-(4-fluoro-2-methylphenyl)-3-(2-oxo-1,2-dihydropyridin-4-yl)-2,3-dihydroquinazolin-4(1H)-one]: 794 to 7940 nM.
Next, `Cc1[nH]c(=O)ccc1N1CN(c2ccc(F)cc2C(C)C)c2cc(C(F)F)ccc2C1=O` [Example 137, 7-(difluoromethyl)-1-(4-fluoro-2-isopropylphenyl)-3-(2-methyl-6-oxo-1,6-dihydropyridin-3-yl)-2,3-dihydroquinazolin-4(1H)-one]: at most 100 nM.
The same measure for `Cc1cc(F)ccc1N1CN(c2ccc(=O)[nH]c2C)C(=O)c2ccc(C(F)F)cc21` [Example 138, 7-(difluoromethyl)-1-(4-fluoro-2-methylphenyl)-3-(2-methyl-6-oxo-1,6-dihydropyridin-3-yl)-2,3-dihydroquinazolin-4(1H)-one]: at most 100 nM; for `CCc1[nH]c(=O)ccc1N1CN(c2ccc(F)cc2C(C)C)c2ccc(Cl)cc2C1=O` [Example 139, 6-chloro-3-(2-ethyl-6-oxo-1,6-dihydropyridin-3-yl)-1-(4-fluoro-2-isopropylphenyl)-2,3-dihydroquinazolin-4(1H)-one]: at most 100 nM.
On to `Cc1[nH]c(=O)ccc1N1CN(c2ccc(F)c(C#N)c2C)c2ccc(C(F)(F)F)cc2C1=O` [Example 140, 6-fluoro-2-methyl-3-(3-(2-methyl-6-oxo-1,6-dihydropyridin-3-yl)-4-oxo-6-(trifluoromethyl)-3,4-dihydroquinazolin-1(2H)-yl)benzonitrile], for which the IC50 was 126 to 631 nM.
In the case of `Cc1[nH]c(=O)ccc1N1CN(c2ccc(F)cc2C(C)C)c2ncc(F)cc2C1=O` [Example 141, 6-fluoro-1-(4-fluoro-2-isopropylphenyl)-3-(2-methyl-6-oxo-1,6-dihydropyridin-3-yl)-2,3-dihydropyrido[2,3-d]pyrimidin-4(1H)-one], the IC50 is 126 to 631 nM.
Next, `Cc1[nH]c(=O)ccc1N1CN(c2ccc(F)cc2Br)c2ccc(C(F)(F)F)cc2C1=O` [Example 142, 1-(2-bromo-4-fluorophenyl)-3-(2-methyl-6-oxo-1,6-dihydropyridin-3-yl)-6-(trifluoromethyl)-2,3-dihydroquinazolin-4(1H)-one]: at most 100 nM; `Cc1cc(F)ccc1N1CN(c2ccc(=O)[nH]c2C)C(=O)c2cc(F)ccc21` [Example 143, 6-fluoro-1-(4-fluoro-2-methylphenyl)-3-(2-methyl-6-oxo-1,6-dihydropyridin-3-yl)-2,3-dihydroquinazolin-4(1H)-one]: at most 100 nM.
Next, `O=C1c2ccc(C(F)(F)F)cc2N(c2ccc(F)cc2)CN1c1ccc(=O)[nH]c1` [Example 144, 1-(4-Fluorophenyl)-3-(6-oxo-1,6-dihydropyridin-3-yl)-7-(trifluoromethyl)-2,3-dihydroquinazolin-4(1H)-one]: 126 to 631 nM.
Next, `Cc1cc(F)ccc1N1CN(c2cnc(=O)[nH]c2)C(=O)c2ccc(C(F)(F)F)cc21` [Example 145, 1-(4-fluoro-2-methylphenyl)-3-(2-oxo-1,2-dihydropyrimidin-5-yl)-7-(trifluoromethyl)-2,3-dihydroquinazolin-4(1H)-one]: 126 to 631 nM.
`Cc1cc(Br)ccc1N1CN(c2ccc(=O)[nH]c2)C(=O)c2ccc(C(F)(F)F)cc21` [Example 146, 1-(4-bromo-2-methylphenyl)-3-(6-oxo-1,6-dihydropyridin-3-yl)-7-(trifluoromethyl)-2,3-dihydroquinazolin-4(1H)-one]: the IC50 was 126 to 631 nM.
Take `Cc1[nH]c(=O)ccc1N1CN(c2ccc(F)cc2)c2cc(C(F)(F)F)ccc2C1=O` [Example 147, 1-(4-fluorophenyl)-3-(2-methyl-6-oxo-1,6-dihydropyridin-3-yl)-7-(trifluoromethyl)-2,3-dihydroquinazolin-4(1H)-one]: the IC50 was 126 to 631 nM.
In the case of `Cc1cc(C#N)ccc1N1CN(c2ccc(=O)[nH]c2C)C(=O)c2ccc(C(F)(F)F)cc21` [Example 148, 3-methyl-4-(3-(2-methyl-6-oxo-1,6-dihydropyridin-3-yl)-4-oxo-7-(trifluoromethyl)-3,4-dihydroquinazolin-1(2H)-yl)benzonitrile], the IC50 was at most 100 nM.
For the compound `Cc1cc(F)ccc1N1CN(c2ccc(=O)[nH]c2C)C(=O)c2ccc(C(F)(F)F)nc21` [Example 149, 1-(4-fluoro-2-methylphenyl)-3-(2-methyl-6-oxo-1,6-dihydropyridin-3-yl)-7-(trifluoromethyl)-2,3-dihydropyrido[2,3-d]pyrimidin-4(1H)-one], the IC50 was 126 to 631 nM.
For `CCc1[nH]c(=O)ccc1N1CN(c2ccc(F)cc2C)c2cc(C(F)(F)F)ccc2C1=O` [Example 150, 3-(2-ethyl-6-oxo-1,6-dihydropyridin-3-yl)-1-(4-fluoro-2-methylphenyl)-7-(trifluoromethyl)-2,3-dihydroquinazolin-4(1H)-one], the IC50 was at most 100 nM.
As for `Cc1cc(F)ccc1N1CN(c2ccc(=O)[nH]c2Cl)C(=O)c2ccc(C(F)(F)F)cc21` [Example 151, 3-(2-chloro-6-oxo-1,6-dihydropyridin-3-yl)-1-(4-fluoro-2-methylphenyl)-7-(trifluoromethyl)-2,3-dihydroquinazolin-4(1H)-one], the IC50 was 794 to 7940 nM.
Take `Cc1cc(F)ccc1N1CN(c2ccc(=O)[nH]c2C)C(=O)c2ccc(Br)cc21` [Example 152, 7-bromo-1-(4-fluoro-2-methylphenyl)-3-(2-methyl-6-oxo-1,6-dihydropyridin-3-yl)-2,3-dihydroquinazolin-4(1H)-one]: the IC50 is at most 100 nM.
The same measure for `Cc1cc(F)ccc1N1CN(c2ccc(=O)[nH]c2C)C(=O)c2ccc(C#N)cc21` [Example 153, 1-(4-fluoro-2-methylphenyl)-3-(2-methyl-6-oxo-1,6-dihydropyridin-3-yl)-4-oxo-1,2,3,4-tetra-hydroquinazoline-7-carbonitrile]: at most 100 nM; for `Cc1cc(F)ccc1N1CN(c2ccc(=O)[nH]c2C#N)C(=O)c2ccc(C(F)(F)F)cc21` [Example 154, 3-(1-(4-fluoro-2-methylphenyl)-4-oxo-7-(trifluoromethyl)-1,4-dihydroquinazolin-3(2H)-yl)-6-oxo-1,6-dihydropyridine-2-carbonitrile]: 126 to 631 nM.
The same measure for `Cc1[nH]c(=O)ccc1N1CN(c2ccc(F)cc2F)c2cc(C(F)(F)F)ccc2C1=O` [Example 155, 1-(2,4-difluorophenyl)-3-(2-methyl-6-oxo-1,6-dihydropyridin-3-yl)-7-(trifluoromethyl)-2,3-dihydroquinazolin-4(1H)-one]: 126 to 631 nM; for `CCOc1ccc(N2CN(c3ccc(=O)[nH]c3C)C(=O)c3ccc(C(F)(F)F)cc32)cc1` [Example 156, 1-(4-ethoxyphenyl)-3-(2-methyl-6-oxo-1,6-dihydropyridin-3-yl)-7-(trifluoromethyl)-2,3-dihydroquinazolin-4(1H)-one]: 126 to 631 nM.
For the compound `Cc1cc(F)ccc1N1CN(c2cc[nH]c(=O)c2)C(=O)c2ccc(C(F)(F)F)cc21` [Example 157, 1-(4-fluoro-2-methylphenyl)-3-(2-oxo-1,2-dihydropyridin-4-yl)-7-(trifluoromethyl)-2,3-dihydroquinazolin-4(1H)-one], the IC50 was 126 to 631 nM.
